Assay results taken from patent US20110124727A1, “Oxybuprocaine-Containing Analgesic/Antipruritic External Preparation” (Teikoku Seiyaku Co., LTD, priority 2008, published 2011).

System: male ddy strain mouse
Assay: Pharmacological test of antipruritic action using mice (Compound 48/80-induced scratching)
Details: for Number of times scratching occurred (mean ± standard error): counted for 30 minutes after Compound 48/80 100 μg/body s.c., oxybuprocaine in saline 10 mg/kg dorsal neck, cyproheptadine 1 mg/kg intraperitoneally, n=6

| Structure (SMILES) | Number of times scratching occurred (mean ± standard error) | Antipruritic effect in words (suppression of scratching behaviors) (compared to saline control group and cyproheptadine group) |
| --- | --- | --- |
| CN1CCC(=C2c3ccccc3C=Cc3ccccc32)CC1 [cyproheptadine] | 76.7 ± 21.3 |  |
| CCCCOc1cc(C(=O)OCCN(CC)CC)ccc1N [oxybuprocaine, Oxybuprocaine] | 45.8 ± 18.9 | suppressed scratching behaviors strongly |
